{"source": "patent EP0105584B1", "about": "“Perfluorocarbon emulsions and their preparation and use in therapy” (ADAMANTECH, INC., priority 1982, dated 1984)", "key": {"[1]": {"assay": "Distribution of drug between PFC phase and aqueous phase of Dispersion B", "format": "physicochemical", "settings": "for Drug in emulsion÷ drug in aqueous phase: Dispersion B, blending for 30 minutes", "description": "(§1) In the course of in vitro chemosensitization studies in the LAN-1 human neuroblastoma spheroid system, conducted substantially as described in Example 4 above except for Adriamycin as the chemotherapeutic agent, it was noted that the anti-tumor activity of the Adriamycin was inhibited by the PFC material (PFC Dispersion B). […] This was tested by dissolving in water a radio-labelled analogue of Adriamycin, C^14-Daunomycin, adding Dispersion B (or in separate experiments, the neat PFC component of Dispersion B), blending for 30 minutes, separating the PFC phase from the aqueous phase, and determining the distribution of drug between the phases. Table VIII below reports the results of the experiment and similar experiments with three other drugs. It will be noted that the more lipophilic Duanomycin preferentially partitioned into the PFC phase whereas the other, less lipophilic, drugs favored the aqueous phase. It was concluded that although the PFC may have an inhibitory effect on less lipophilic drugs, the delivery of lipophilic drugs will be enhanced by the PFC.\nThe partitioning of the Vincristine between the PFC and aqueous phases of Dispersion B was first studied in comparison with Daunomycin, as reported in Table IX below, where \"PFC\" means the PFC phase of Dispersion B."}, "[2]": {"assay": "Octanol:water partition coefficient"}, "MCa-11 mammary carcinoma [3]": {"test_system": "MCa-11 mammary carcinoma", "assay": "In vivo chemosensitization with Vincristine", "parameters": "species or system BALB/c mice", "settings": "Vincristine 1.5 mg/kg i.p. single dose, or 20 ml/kg Dispersion B i.v. with carbogen breathing, each alone"}, "[4]": {"test_system": "NB-100 neuroblastoma multicellular tumor spheroids", "assay": "In vitro chemosensitization with methotrexate, MTS", "format": "cell-based, human", "settings": "5 µM MTX for 24 hours"}, "MCa-11 mammary carcinoma [5]": {"test_system": "MCa-11 mammary carcinoma", "assay": "In vivo chemosensitization with cyclophosphamide", "parameters": "species or system BALB/c mice", "settings": "cyclophosphamide 75 mg/kg i.p. single dose", "description": "The combined use of PFC dispersion (Dispersion B) and high oxygen breathing for enhancement of the anti-tumor effects of cyclophosphamide (\"CYC\") was investigated with respect to treatment of MCa-11 mammary carcinoma transplanted into the right hind leg of female BALB/c mice. The tumors were allowed to grow to 2 mm at which point the animals were treated as described in Table VII below, wherein the cyclophosphamide, obtained commercially, was dissolved in distilled water and injected in a volume equal to […] of body weight. Three to six animals per treatment group were used in the study. On the day of treatment and three to five times per week thereafter, the tumors were sized with vernier calipers."}, "P388 leukemia": {"test_system": "P388 leukemia", "settings": "cited from earlier work"}, "[6]": {"test_system": "LAN-1 human neuroblastoma spheroid system", "assay": "In vitro chemosensitization with Adriamycin, spheroids", "format": "cell-based", "settings": "in the presence of PFC Dispersion B", "description": "as §1"}, "[7]": {"settings": "1 hour, PFC phase of Dispersion B"}}, "note": "Marks after values point to notes of the source that are not given here.", "data": [{"compound": "NCCCNCCSP(=O)(O)O", "note": "[WR-2721, S - 2 - (3 - aminopropylamino) ethylphosphorothioic acid]", "values": [{"measurement": "Drug in emulsion÷ drug in aqueous phase", "setting": "[1]", "result": 0.05}, {"measurement": "logP", "setting": "[2]", "result": -2.7}]}, {"compound": "CC[C@]1(O)C[C@H]2CN(CCc3c([nH]c4ccccc34)[C@@](C(=O)OC)(c3cc4c(cc3OC)N(C=O)[C@H]3[C@@](O)(C(=O)OC)[C@H](OC(C)=O)[C@]5(CC)C=CCN6CC[C@]43[C@@H]65)C2)C1", "note": "[Vincristine]", "values": [{"measurement": "PFC/H2O (ratio of concentrations in the emulsion and the aqueous phases)", "setting": "[1]; [7]", "result": 2.69}, {"measurement": "PFC/H2O (ratio of concentrations in the emulsion and the aqueous phases)", "setting": "[1]; 3 hours, determined via bioassay in the LAN-1 neuroblastoma spheroid system", "result": "9.10^c"}, {"measurement": "effect on tumor growth", "setting": "MCa-11 mammary carcinoma [3]", "result": "no effect on tumor growth"}, {"measurement": "logP", "setting": "[2]", "result": 2.83}]}, {"compound": "CN(Cc1cnc2nc(N)nc(N)c2n1)c1ccc(C(=O)N[C@@H](CCC(=O)O)C(=O)O)cc1", "note": "[MTX, methotrexate]", "values": [{"measurement": "D8, number of days required for the MTS to grow 8 units or 200 µm beyond their original diameter", "setting": "[4]", "result": 9.52, "unit": "days"}, {"measurement": "MTS sizes", "setting": "[4]; Day 0, 1 unit=25 µm", "result": "9.83±0.17", "unit": "microscope units"}, {"measurement": "MTS sizes", "setting": "[4]; Day 1", "result": 9.74, "unit": "microscope units"}, {"measurement": "MTS sizes", "setting": "[4]; Day 4", "result": 10.69, "unit": "microscope units"}, {"measurement": "MTS sizes", "setting": "[4]; Day 6", "result": 11.76, "unit": "microscope units"}, {"measurement": "MTS sizes", "setting": "[4]; Day 8", "result": 13.93, "unit": "microscope units"}, {"measurement": "MTS sizes", "setting": "[4]; Day 12", "result": 18.93, "unit": "microscope units"}, {"measurement": "MTS sizes", "setting": "[4]; Day 15", "result": 21.83, "unit": "microscope units"}, {"measurement": "Drug in emulsion÷ drug in aqueous phase", "setting": "[1]", "result": 0.07}, {"measurement": "Lipophilicity index (partition coefficient of the drug between octanol and water)", "result": 0.014}]}, {"compound": "O=P1(N(CCCl)CCCl)NCCCO1", "note": "(stereo not drawn) [Cyclophosphamide, cyclophosphamide]", "values": [{"measurement": "Days to grow 6 mm", "setting": "MCa-11 mammary carcinoma [5]; interpolated from the tumor growth curves", "result": 17.8, "unit": "days"}, {"measurement": "Growth delay", "setting": "MCa-11 mammary carcinoma [5]; relative to untreated controls", "result": 5.3}]}, {"compound": "FC(F)(F)C(F)(F)C(F)(F)C(F)(F)C(F)(F)C(F)(F)C(F)(F)C(F)(F)Br", "note": "[perfluorooctyl bromide]", "values": [{"measurement": "local toxicity", "setting": "P388 leukemia; mouse, in vivo", "result": "local toxic reactions in the peritoneal cavity were observed"}, {"measurement": "improvement in therapy (survival time)", "setting": "P388 leukemia; oxygen-saturated neat compound injected 24 hours before graded doses of whole body X-rays, versus salt solution", "result": "failed to show a significant improvement in therapy"}]}, {"compound": "COc1cccc2c1C(=O)c1c(O)c3c(c(O)c1C2=O)C[C@@](O)(C(C)=O)C[C@@H]3O[C@H]1C[C@H](N)[C@H](O)[C@H](C)O1", "note": "[Daunomycin]", "values": [{"measurement": "PFC/H2O (ratio of concentrations in the emulsion and the aqueous phases)", "setting": "[1]; [7]", "result": 1.23}, {"measurement": "PFC/H2O (ratio of concentrations in the emulsion and the aqueous phases)", "setting": "[1]; 3 hours, PFC phase of Dispersion B", "result": 3.80}, {"measurement": "Drug in emulsion÷ drug in aqueous phase", "setting": "[1]", "result": 3.77}, {"measurement": "logP", "setting": "[2]", "result": -0.102}]}, {"compound": "COCC(O)Cn1ccnc1[N+](=O)[O-]", "note": "(stereo not drawn) [Misonidazole]", "values": [{"measurement": "Drug in emulsion÷ drug in aqueous phase", "setting": "[1]", "result": 0.04}, {"measurement": "logP", "setting": "[2]", "result": -0.367}]}, {"compound": "COc1cccc2c1C(=O)c1c(O)c3c(c(O)c1C2=O)C[C@@](O)(C(=O)CO)C[C@@H]3O[C@H]1C[C@H](N)[C@H](O)[C@H](C)O1", "note": "[Adriamycin]", "values": [{"measurement": "anti-tumor activity", "setting": "[6]", "result": "inhibited"}]}]}
